Data taken from patent US20070054943A1, “Therapeutic agent for keratoconjunctival disorder” (SANTEN PHARMACEUTICAL CO., LTD., priority 2004, published 2007).
“Also recorded” adds a separate entry of the source.

Test system: corneal disorder models
Test: Test for therapeutic effect on corneal damage (corneal disorder models, exorbital lacrimal gland removal, fluorescein staining score)
Type: in vivo, male SD rats
Details: for Improvement ratio (%): {(control)-(compound)}/{(control)-(normal eye)}x100; for Mean value of total scores: fluorescein staining score (0-3 each for upper, middle, lower cornea), mean of 8 cases, normal eye 2.9, control 6.1; for effect on corneal damage (in words): rat corneal disorder models, instillation of rosiglitazone 0.02% or pioglitazone hydrochloride 0.01%, 6 times a day for 14 days
Method: Test For Therapeutic Effect On Corneal Damage
Using male SD rats, in accordance with the method of Fujihara et al. (Invest. Ophthalmol. Vis. Sci. 42 (1) 96-100 (2001)), corneal disorder models were produced. After the production of the corneal disorder models, the improvement ratio of a corneal damage was evaluated by a method (Journal of the eye 21 (1) : 87-90 (2004)) modified from the method of Miyata et al. (Japanese Review of Clinical Ophthalmology 48 (2) : 183-188 (1994)).
A male SD rat was systemically anesthetized by an administration of Nembutal. Subsequently the exorbital lacrimal gland was removed and a corneal damage was induced over a period of 2 months.
Then, the present compound (rosiglitazone or pioglitazone hydrochloride) was administered as follows.
A physiological saline solution of rosiglitazone (0.02%) was instilled into both eyes 6 times a day for 14 days (one group consisting of 8 animals).
A physiological saline solution of pioglitazone hydrochloride (0.01%) was instilled into both eyes 6 times a day for 14 days (one group consisting of 8 animals).
In a control group, physiological saline was instilled into both eyes 6 times a day for 14 days (one group consisting of 8 animals).
Fourteen days after the start of instillation, the damaged parts of the cornea were stained with fluorescein. For each of the upper, middle and lower parts of the cornea, the degree of fluorescein staining was evaluated by scoring according to the criteria shown below and the improvement ratio of corneal damage was calculated from the mean value of the total scores for each of the above-mentioned parts.
• 0: No punctate staining • 1: Scattered staining (punctate staining being separated) • 2: Moderate staining (a part of punctate staining being adjacent) • 3: Heavy staining (punctate staining being barely separated) (Results)
By taking the mean value of the total scores for the control group (physiological saline) as a standard (improvement ratio: 0%) and according to the calculation formula shown below, the improvement ratios for rosiglitazone (0.02%) instillation group and pioglitazone (0.01%) instillation group were calculated, which are shown in Table 1. The mean value of the scores is a mean of those of 8 cases, respectively. Improvement ratio(%)={(control)−(the present compound)}/damage degree×100
Damage degree=(control)−(normal eye)

[1] = 0.01% (pioglitazone hydrochloride) in physiological saline instilled into both eyes 6 times a day for 14 days
[2] = 0.02% in physiological saline instilled into both eyes 6 times a day for 14 days

Compound	Improvement ratio (%) [1]	Mean value of total scores [1]	effect on corneal damage (in words) (listed as pioglitazone)	effect on corneal damage (in words) (listed as pioglitazone hydrochloride)	Improvement ratio (%) [2]	Mean value of total scores [2]	effect on corneal damage (in words)
CCc1ccc(CCOc2ccc(CC3SC(=O)NC3=O)cc2)nc1 (stereo not shown) [Pioglitazone, 5-[[4-[2-(5-ethyl-2-pyridinyl)ethoxy]phenyl]methyl]-2,4-thiazolidinedione]	62.5%	4.1	significantly improve a corneal damage	excellent improving effect			
CN(CCOc1ccc(CC2SC(=O)NC2=O)cc1)c1ccccn1 (stereo not shown) [Rosiglitazone, 5-[p-[2-(methyl-2-pyridylamino)ethoxy]benzyl]-2,4-thiazolidinedione]					68.7%	3.9	excellent improving effect; also recorded: significantly improve a corneal damage
